This note sets out measurements from patent US9533987B2, “Heterocyclic derivates” (KALVISTA PHARMACEUTICALS LIMITED, priority 2013, dated 2017).

Holding throughout (type): biochemical
The target in experiment [1] is Human plasma kallikrein (Homo sapiens (Human), UniProt P03952). Nature of the experiment: Determination of the IC50 for plasma kallikrein (fluorogenic substrate H-DPro-Phe-Arg-AFC). As to conditions: 37° C., read-out: IC50 (human PKaI). As for the experimental part:
Determination of the IC50 for Plasma Kallikrein
Human plasma kallikrein (Protogen) was incubated at 37° C. with the fluorogenic substrate H-DPro-Phe-Arg-AFC and various concentrations of the test compound. Residual enzyme activity (initial rate of reaction) was determined by measuring the change in […] at 410 nm and the IC50 value for the test compound was determined.

In experiment [2] the target is Human KLK1 (Homo sapiens (Human), UniProt P06870). As to the kind of experiment: Determination of the IC50 for KLK1 (fluorogenic substrate H-DVal-Leu-Arg-AFC). To be noted: 37° C. As for the experimental part: Determination of the IC50 for KLK1
Chain of Human KLK1 (P06870 25-262): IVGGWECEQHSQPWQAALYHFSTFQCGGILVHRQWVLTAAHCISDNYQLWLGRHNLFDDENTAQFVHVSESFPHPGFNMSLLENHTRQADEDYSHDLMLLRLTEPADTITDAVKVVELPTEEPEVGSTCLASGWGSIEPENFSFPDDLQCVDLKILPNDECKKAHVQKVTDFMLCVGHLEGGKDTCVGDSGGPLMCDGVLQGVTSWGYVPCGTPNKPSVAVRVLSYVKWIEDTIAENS
Human KLK1 (Callbiochem) was incubated at 37° C. with the fluorogenic substrate H-DVal-Leu-Arg-AFC and various concentrations of the test compound. Residual enzyme activity (initial rate of reaction) was determined by measuring the change in […] at 410 nm and the IC50 value for the test compound was determined.

Experiment [3] addresses Factor XIIa (Homo sapiens (Human), UniProt P00748). Nature of the experiment: Determination of enzyme selectivity, Factor XIIa. To be noted: substrate at Km concentration. As for the experimental part:
Determination of Enzyme Selectivity
Human serine protease enzymes plasmin, thrombin, trypsin, Factor Xa and Factor XIIa were assayed for enzymatic activity using an appropriate fluorogenic substrate. Protease activity was measured by monitoring the accumulation of liberated fluorescence from the substrate over 5 minutes. The linear rate of fluorescence increase per minute was expressed as percentage (%) activity. The Km for the cleavage of each substrate was determined by standard transformation of the Michaelis-Menten equation.

Chain of Factor XIIa (P00748 373-615): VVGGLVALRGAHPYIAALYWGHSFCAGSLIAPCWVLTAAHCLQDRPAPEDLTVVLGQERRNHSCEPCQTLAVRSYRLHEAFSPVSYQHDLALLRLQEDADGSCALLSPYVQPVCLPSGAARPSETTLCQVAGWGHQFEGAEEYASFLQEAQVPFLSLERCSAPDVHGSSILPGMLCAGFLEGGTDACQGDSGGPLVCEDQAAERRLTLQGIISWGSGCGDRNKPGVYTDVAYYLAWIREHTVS
Chain of Human plasma kallikrein (P03952 391-638): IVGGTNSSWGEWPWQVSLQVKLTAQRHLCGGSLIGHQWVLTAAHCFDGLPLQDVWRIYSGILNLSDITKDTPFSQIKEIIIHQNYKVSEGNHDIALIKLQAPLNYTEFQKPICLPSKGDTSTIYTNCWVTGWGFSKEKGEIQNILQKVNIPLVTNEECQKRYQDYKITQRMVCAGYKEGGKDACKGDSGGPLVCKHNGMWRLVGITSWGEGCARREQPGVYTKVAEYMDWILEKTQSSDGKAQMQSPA
Chain of Human plasma kallikrein (P03952 20-390 partner): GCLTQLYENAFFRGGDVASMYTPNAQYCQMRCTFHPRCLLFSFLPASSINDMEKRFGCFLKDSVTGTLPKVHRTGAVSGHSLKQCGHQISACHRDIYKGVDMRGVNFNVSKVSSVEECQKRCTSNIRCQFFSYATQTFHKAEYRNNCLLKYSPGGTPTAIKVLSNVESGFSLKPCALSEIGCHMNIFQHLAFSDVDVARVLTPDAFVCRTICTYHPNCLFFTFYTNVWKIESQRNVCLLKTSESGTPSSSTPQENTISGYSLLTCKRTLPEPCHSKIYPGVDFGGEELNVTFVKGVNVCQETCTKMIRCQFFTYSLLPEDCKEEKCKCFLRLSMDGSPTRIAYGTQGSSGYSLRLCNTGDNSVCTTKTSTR

One may read the IC50 as the concentration at which inhibition is half-maximal. Consider “1-[4-(4-Methyl-pyrazol-1-ylmethyl)-benzyl]-3-trifluoromethyl-1H-pyrazole-4-carboxylic acid (4,6-dimethyl-1H-pyrrolo[2,3-b]pyridin-5-ylmethyl)-amide [Example 119]”, for which the IC50 was 0.0866 µM in experiment [1], more than 4 µM in experiment [2] and more than 4000 nM in experiment [3].

For the molecule `Cc1cc(C(=O)NCc2ccc3ccnc(N)c3c2)c(C)n1Cc1csc(-c2ccccc2)n1` [Example 2, 2,5-Dimethyl-1-(2-phenyl-thiazol-4-ylmethyl)-1H-pyrrole-3-carboxylic acid (1-amino-isoquinolin-7-ylmethyl)-amide], the IC50 was 2.11 µM in experiment [1], more than 10 µM in experiment [2] and more than 10000 nM in experiment [3].

With `CCn1c(C(=O)NCc2ccc3c(N)nccc3c2)cc(C)c1Cc1ccc(Cn2ccccc2=O)cc1` [Example 6, 1-Ethyl-4-methyl-5-[4-(2-oxo-2H-pyridin-1-ylmethyl)-benzyl]-1H-pyrrole-2-carboxylic acid (1-amino-isoquinolin-6-ylmethyl)-amide], the half-inhibitory concentration (IC50) in experiment [1] is 9.46 µM; in experiment [2], 9.46 µM; in experiment [3], more than 10000 nM.

Take `Cc1cnn(Cc2ccc(Cn3cc(C(=O)NCc4ccc5c(N)nccc5c4)c(C(C)C)n3)cc2)c1` [Example 13, 3-Isopropyl-1-[4-(4-methyl-pyrazol-1-ylmethyl)-benzyl]-1H-pyrazole-4-carboxylic acid (1-amino-isoquinolin-6-ylmethyl)-amide]: the 50% inhibitory concentration (IC50) is 0.00214 µM in experiment [1], 5.16 µM in experiment [2] and more than 10000 nM in experiment [3].

As to `Cc1cnn(Cc2ccc(Cn3cc(C(=O)NCc4ccc5c(N)nccc5c4)c(C4CCC4)n3)cc2)c1` [Example 14, 3-Cyclobutyl-1-[4-(4-methyl-pyrazol-1-ylmethyl)-benzyl]-1H-pyrazole-4-carboxylic acid (1-amino-isoquinolin-6-ylmethyl)-amide], the 50% inhibitory concentration (IC50) was 0.00462 µM in experiment [1], 5.97 µM in experiment [2] and more than 10000 nM in experiment [3].

Turning to `Cc1cnn(Cc2ccc(Cc3nc(C)c(C(=O)NCc4ccc5c(N)nccc5c4)s3)cc2)c1` [Example 18, 4-Methyl-2-[4-(4-methyl-pyrazol-1-ylmethyl)-benzyl]-thiazole-5-carboxylic acid (1-amino-isoquinolin-6-ylmethyl)-amide], the half-maximal inhibitory concentration (IC50) was 0.032 µM in experiment [1], more than 10 µM in experiment [2] and more than 10000 nM in experiment [3].

Take `Cc1cnn(Cc2ccc(Cn3cc(C(=O)NCc4cc5cc[nH]c5nc4C)cn3)cc2)c1` [Example 22, 1-[4-(4-Methyl-pyrazol-1-ylmethyl)-benzyl]-1H-pyrazole-4-carboxylic acid (6-methyl-1H-pyrrolo[2,3-b]pyridin-5-ylmethyl)-amide]: the IC50 in experiment [1] is 0.132 µM; in experiment [2], more than 10 µM; in experiment [3] it was more than 10000 nM.

Consider `CCn1c(C(=O)NCc2ccc3c(N)nccc3c2)cc(C)c1Cc1ccc(Cn2cc(C)cn2)cc1` [Example 28, 1-Ethyl-4-methyl-5-[4-(4-methyl-pyrazol-1-ylmethyl)-benzyl]-1H-pyrrole-2-carboxylic acid (1-amino-isoquinolin-6-ylmethyl)-amide], for which the figures for the IC50 in experiment [1], in experiment [2] and in experiment [3] were 0.0637 µM, more than 10 µM and more than 10000 nM, respectively.

Regarding `CCn1c(C(=O)NCc2ccc3c(N)nccc3c2)cc(C)c1Cc1ccc(N2CCCC2)nc1` [Example 30, 1-Ethyl-4-methyl-5-(6-pyrrolidin-1-yl-pyridin-3-ylmethyl)-1H-pyrrole-2-carboxylic acid (1-amino-isoquinolin-6-ylmethyl)-amide], the IC50 in experiment [1] was 1.47 µM; in experiment [2], 5.75 µM; in experiment [3], more than 10000 nM.

For `Cc1cnn(Cc2ccc(Cn3cc(C(=O)NCc4ccc5c(N)nccc5c4)nn3)cc2)c1` [Example 33, 1-[4-(4-Methyl-pyrazol-1-ylmethyl)-benzyl]-1H-[1,2,3]triazole-4-carboxylic acid (1-amino-isoquinolin-6-ylmethyl)-amide], the half-inhibitory concentration (IC50) was 0.0028 µM in experiment [1], more than 10 µM in experiment [2] and more than 10000 nM in experiment [3].

Consider `Cc1cnn(Cc2ccc(Cn3nc(C)c(C(=O)NCc4ccc5c(N)nccc5c4)c3C)cc2)c1` [Example 34, 3,5-Dimethyl-1-[4-(4-methyl-pyrazol-1-ylmethyl)-benzyl]-1H-pyrazole-4-carboxylic acid (1-amino-isoquinolin-6-ylmethyl)-amide], for which the half-maximal inhibitory concentration (IC50) in experiment [1] was 0.142 µM; in experiment [2], 18.2 µM; in experiment [3], more than 40000 nM.

With `Cc1cnn(Cc2ccc(Cn3cc(C(=O)NCc4ccc5c(N)nccc5c4)c(-c4ccccc4)n3)cc2)c1` [Example 35, 1-[4-(4-Methyl-pyrazol-1-ylmethyl)-benzyl]-3-phenyl-1H-pyrazole-4-carboxylic acid (1-amino-isoquinolin-6-ylmethyl)-amide], the IC50 in experiment [1] was 0.00368 µM; in experiment [2], more than 10 µM; in experiment [3] it was more than 10000 nM.

As for `Cc1cnn(Cc2ccc(Cn3cc(C(=O)NCc4ccc5c(N)nccc5c4)c(N)n3)cc2)c1` [Example 37, 3-Amino-1-[4-(4-methyl-pyrazol-1-ylmethyl)-benzyl]-1H-pyrazole-4-carboxylic acid (1-amino-isoquinolin-6-ylmethyl)-amide], the half-maximal inhibitory concentration (IC50) in experiment [1] was 0.00067 µM; in experiment [2], 3.53 µM; in experiment [3], more than 10000 nM.

On to `COCc1nn(Cc2ccc(Cn3cc(C)cn3)cc2)cc1C(=O)NCc1ccc2c(N)nccc2c1` [Example 38, 3-Methoxymethyl-1-[4-(4-methyl-pyrazol-1-ylmethyl)-benzyl]-1H-pyrazole-4-carboxylic acid (1-amino-isoquinolin-6-ylmethyl)-amide], for which the IC50 in experiment [1] was 0.00127 µM; in experiment [2], 7.84 µM; in experiment [3] it was more than 10000 nM.

For the molecule `Cc1cnn(Cc2ccc(Cn3cc(C(=O)NCc4ccc5c(N)nccc5c4)c(C(F)F)n3)cc2)c1` [Example 39, 3-Difluoromethyl-1-[4-(4-methyl-pyrazol-1-ylmethyl)-benzyl]-1H-pyrazole-4-carboxylic acid (1-amino-isoquinolin-6-ylmethyl)-amide], the half-maximal inhibitory concentration (IC50) in experiment [1] was 0.00168 µM; in experiment [2], 8.05 µM; in experiment [3], more than 10000 nM.

For the molecule `Cc1nc(C)c(N(C)Cc2ccc(Cn3cc(C(=O)NCc4ccc5c(N)nccc5c4)cn3)cc2)s1` [Example 46, 1-(4-{[(2,4-Dimethyl-thiazol-5-yl)-methyl-amino]-methyl}-benzyl)-1H-pyrazole-4-carboxylic acid (1-amino-isoquinolin-6-ylmethyl)-amide], the concentration for half-maximal inhibition (IC50) in experiment [3] was more than 40000 nM.

As to `O=C(NCc1cnc2[nH]ccc2c1)c1cn(Cc2ccc(N3CCCC3)nc2)nc1C(F)(F)F` [Example 114, 1-(6-Pyrrolidin-1-yl-pyridin-3-ylmethyl)-3-trifluoromethyl-1H-pyrazole-4-carboxylic acid (1H-pyrrolo[2,3-b]pyridin-5-ylmethyl)-amide], the IC50 in experiment [1] worked out at 0.304 µM; in experiment [2], 1.21 µM.

Consider `Cc1cnn(Cc2ccc(Cn3cc(C(=O)NCc4cnc5[nH]ccc5c4)c(C(F)(F)F)n3)cc2)c1` [Example 121, 1-[4-(4-Methyl-pyrazol-1-ylmethyl)-benzyl]-3-trifluoromethyl-1H-pyrazole-4-carboxylic acid (1H-pyrrolo[2,3-b]pyridin-5-ylmethyl)-amide], for which the IC50 in experiment [1] was 0.062 µM; in experiment [2] it was more than 10 µM.

Regarding `Cc1cnn(Cc2ccc(Cn3cc(C(=O)NCc4c(C)nc5[nH]ccc5c4C)c(C4CC4)n3)cc2)c1` [Example 122, 3-Cyclopropyl-1-[4-(4-methyl-pyrazol-1-ylmethyl)-benzyl]-1H-pyrazole-4-carboxylic acid (4,6-dimethyl-1H-pyrrolo[2,3-b]pyridin-5-ylmethyl)-amide], the concentration for half-maximal inhibition (IC50) in experiment [1] was 0.101 µM; in experiment [2], more than 10 µM.

Turning to `Cc1cnn(Cc2ccc(Cn3cc(C(=O)NCc4ccnc5[nH]ccc45)c(C(F)(F)F)n3)cc2)c1` [Example 125, 1-[4-(4-Methyl-pyrazol-1-ylmethyl)-benzyl]-3-trifluoromethyl-1H-pyrazole-4-carboxylic acid (1H-pyrrolo[2,3-b]pyridin-4-ylmethyl)-amide], the IC50 was 4.01 µM in experiment [1] and more than 10 µM in experiment [2].

Take `Cc1cnn(Cc2ccc(Cn3cc(C(=O)NCc4n[nH]c5ccc(Cl)cc45)c(C(F)(F)F)n3)cc2)c1` [Example 127, 1-[4-(4-Methyl-pyrazol-1-ylmethyl)-benzyl]-3-trifluoromethyl-1H-pyrazole-4-carboxylic acid (5-chloro-1H-indazol-3-ylmethyl)-amide]: the 50% inhibitory concentration (IC50) was 0.537 µM in experiment [1] and more than 10 µM in experiment [2].

Turning to `O=C(NCc1n[nH]c2ccc(Cl)cc12)c1cn(Cc2ccc(N3CCCC3)nc2)nc1C(F)(F)F` [Example 128, 1-(6-Pyrrolidin-1-yl-pyridin-3-ylmethyl)-3-trifluoromethyl-1H-pyrazole-4-carboxylic acid (5-chloro-1H-indazol-3-ylmethyl)-amide], the IC50 in experiment [1] is 0.0249 µM; in experiment [2] it was more than 10 µM.

With `O=C(NCc1n[nH]c2ccc(Cl)cc12)c1cn(Cc2ccc(Cn3ccccc3=O)cc2)nc1C(F)(F)F` [Example 129, 1-[4-(2-Oxo-2H-pyridin-1-ylmethyl)-benzyl]-3-trifluoromethyl-1H-pyrazole-4-carboxylic acid (5-chloro-1H-indazol-3-ylmethyl)-amide], the half-inhibitory concentration (IC50) is 0.00214 µM in experiment [1] and more than 10 µM in experiment [2].
